# According to PMC12307812 (Nature Communications, 2025):
# Read-outs that look alike come from different tables or passages of the source.
# Columns and labels:
# [1] = system: pseudovirus bearing S protein of SARS-CoV-2 lineage B.1.617.2; experiment: organism not typed; type: cell-based
# [2] = target: T1, Recombinant Human TMPRSS2 (Homo sapiens, UniProt O15393); experiment: TMPRSS2 biochemical assay (Boc-Gln-Ala-Arg-AMC fluorogenic substrate)
# T1 construct: human TMPRSS2 residues 106492, N-terminal 6x His-tag; 6x His-tag (N); purchased Cusabio CSB-YP023924HU; host or cells: yeast
# T1 sequence (O15393 106-492 limits assumed): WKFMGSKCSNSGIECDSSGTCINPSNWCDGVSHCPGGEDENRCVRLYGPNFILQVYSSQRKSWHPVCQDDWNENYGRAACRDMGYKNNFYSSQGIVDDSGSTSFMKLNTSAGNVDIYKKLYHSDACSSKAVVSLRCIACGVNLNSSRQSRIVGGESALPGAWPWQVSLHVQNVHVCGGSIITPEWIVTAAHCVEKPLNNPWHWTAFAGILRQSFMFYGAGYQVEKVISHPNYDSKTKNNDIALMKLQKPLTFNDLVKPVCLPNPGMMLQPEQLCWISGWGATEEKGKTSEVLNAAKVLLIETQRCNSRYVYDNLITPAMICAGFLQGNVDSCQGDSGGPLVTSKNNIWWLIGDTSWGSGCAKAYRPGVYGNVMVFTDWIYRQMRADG
# Method: Inhibitors of TMPRSS2 were tested using a high throughput activity assay. […] TMPRSS2 (5 µl, 0.018 mg/ml) in assay buffer (50 mM Tris pH 8, 150 mM NaCl, 0.01% Tween20) was dispensed to that, using a BioRAPTR (Beckman Coulter), for a total assay volume of 5 µl.
# After incubation at room temperature for 1 h, fluorescence was measured. […] Raw plate reads for each titration point were normalized relative to a positive control containing no enzyme (0% activity, full inhibition) and a negative control containing DMSO-only wells (100% activity, basal activity). Data normalization was performed using GraphPad Prism (GraphPad Software, San Diego, CA).
# We employed the curve fitting algorithm available in the SciPy package (version 1.10.1)[61] to derive the Hill slope and the IC50 value, along with their corresponding error estimates.
# [3] = system: pseudovirus bearing S protein of SARS-CoV-2 lineage EG.5.1; experiment: organism not typed; type: cell-based
# [4] = system: pseudovirus bearing S protein of MERS-CoV; experiment: organism not typed; type: cell-based
# [5] = system: pseudovirus bearing S protein of SARS-CoV-2 lineage BA.2.86; experiment: organism not typed; type: cell-based
# [6] = system: pseudovirus bearing VSV-G; experiment: organism not typed; type: cell-based; details: Calu-3
# [7] = system: vesicular stomatitis virus (VSV); type: cell-based; details: for mean log10(PFU/ml): VSV
# [8] = system: pseudovirus bearing S protein of SARS-CoV-2 lineage B.1; experiment: organism not typed; type: cell-based
# [9] = system: pseudovirus bearing S protein of SARS-CoV-1; experiment: organism not typed; type: cell-based
# [10] = system: pseudovirus bearing S protein of HCoV-NL63; experiment: organism not typed; type: cell-based
# [11] = Calu-3, read-out: mean inhibition
compound,measurement,setting,value
CC(C)(C)NC(=O)N1CCN(C(=O)N2C(=O)C(CCCNC(=N)N)C2C(=O)O)CC1 (centres unmarked) [BMS-262084],inhibition at 0.00025 µM,"[1]; Calu-3, B.1.617.2, concentration 0.25 nM",-3.95%
same,inhibition at 0.0025 µM,"[1]; Calu-3, B.1.617.2, concentration 2.5 nM",6%
same,inhibition at 0.025 µM,"[1]; Calu-3, B.1.617.2, concentration 25 nM",32.3%
same,inhibition at 0.25 µM,"[1]; Calu-3, B.1.617.2, concentration 250 nM",82.7%
same,inhibition at 2.5 µM,"[1]; Calu-3, B.1.617.2, concentration 2500 nM",96.1%
same,inhibition at 25 µM,"[1]; Calu-3, B.1.617.2, concentration 25000 nM",96.1%
same,IC50,"[1]; Calu-3 cells, read-out: IC50, pseudovirus cell entry B.1.617.2",52.5 nM
same,inhibition at 75.27 pM,[2]; concentration 0.0752671 nM,1.73%
same,inhibition at 0.000225801 µM,[2]; concentration 0.225801 nM,16.6%
same,inhibition at 0.000677404 µM,[2]; concentration 0.677404 nM,22.3%
same,inhibition at 0.00203221 µM,[2]; concentration 2.03221 nM,54.4%
same,inhibition at 0.00609663 µM,[2]; concentration 6.09663 nM,77.8%
same,inhibition at 0.0182899 µM,[2]; concentration 18.2899 nM,91.4%
same,inhibition at 0.0548697 µM,[2]; concentration 54.8697 nM,94.8%
same,inhibition at 0.164609 µM,[2]; concentration 164.609 nM,99.3%
same,inhibition at 0.493827 µM,[2]; concentration 493.827 nM,97.2%
same,inhibition at 1.48148 µM,[2]; concentration 1481.48 nM,99%
same,inhibition at 4.44444 µM,[2]; concentration 4444.44 nM,98%
same,inhibition at 13.3333 µM,[2]; concentration 13333.3 nM,98.8%
same,inhibition at 40 µM,[2]; concentration 40000 nM,93.2%
same,IC50,"[2]; read-out: IC50, inhibition in TMPRSS2 biochemical assay",1.82 nM
same,inhibition at 0.00025 µM,"[3]; Calu-3, EG.5.1, concentration 0.25 nM",10.3%
same,inhibition at 0.0025 µM,"[3]; Calu-3, EG.5.1, concentration 2.5 nM",16.8%
same,inhibition at 0.025 µM,"[3]; Calu-3, EG.5.1, concentration 25 nM",26.9%
same,inhibition at 0.25 µM,"[3]; Calu-3, EG.5.1, concentration 250 nM",51.3%
same,inhibition at 2.5 µM,"[3]; Calu-3, EG.5.1, concentration 2500 nM",58.1%
same,inhibition at 25 µM,"[3]; Calu-3, EG.5.1, concentration 25000 nM",57.8%
same,"fold less efficient inhibition of EG.5.1-S entry compared to B.1-S, B.1.617.2-S or BA.2.86-S",[3]; Calu-3 cells,20–50 fold
same,IC50,"[3]; Calu-3 cells, Fig. 4g, read-out: IC50 estimate, pseudovirus cell entry EG.5.1",1200 ± 763 nM
same,IC50,"[3]; Calu-3 cells, read-out: IC50, EG.5.1-S protein-driven Calu-3 cell entry",1200 nM
same,IC50,"[4]; Calu-3, read-out: IC50 estimate, pseudovirus cell entry MERS-S",101 ± 24.2 nM
same,inhibition at 0.00025 µM,"[4]; Calu-3, concentration 0.25 nM",0.787%
same,inhibition at 0.0025 µM,"[4]; Calu-3, concentration 2.5 nM",-4.71%
same,inhibition at 0.025 µM,"[4]; Calu-3, concentration 25 nM",29.1%
same,inhibition at 0.25 µM,"[4]; Calu-3, concentration 250 nM",67.2%
same,inhibition at 2.5 µM,"[4]; Calu-3, concentration 2500 nM",89.3%
same,inhibition at 25 µM,"[4]; Calu-3, concentration 25000 nM",93%
same,inhibition at 0.00025 µM,"[5]; Calu-3, BA.2.86, concentration 0.25 nM",2.76%
same,inhibition at 0.0025 µM,"[5]; Calu-3, BA.2.86, concentration 2.5 nM",1.45%
same,inhibition at 0.025 µM,"[5]; Calu-3, BA.2.86, concentration 25 nM",44.5%
same,inhibition at 0.25 µM,"[5]; Calu-3, BA.2.86, concentration 250 nM",74.7%
same,inhibition at 2.5 µM,"[5]; Calu-3, BA.2.86, concentration 2500 nM",89.7%
same,inhibition at 25 µM,"[5]; Calu-3, BA.2.86, concentration 25000 nM",98.9%
same,IC50,"[5]; Calu-3 cells, read-out: IC50, pseudovirus cell entry BA.2.86",48.2 nM
same,inhibition at 0.00025 µM,[6]; concentration 0.25 nM,2.19%
same,inhibition at 0.0025 µM,[6]; concentration 2.5 nM,1.17%
same,inhibition at 0.025 µM,[6]; concentration 25 nM,1.08%
same,inhibition at 0.25 µM,[6]; concentration 250 nM,0.456%
same,inhibition at 2.5 µM,[6]; concentration 2500 nM,0.565%
same,inhibition at 25 µM,[6]; concentration 25000 nM,-2.28%
same,effect on VSV infection,[7],not affected
same,mean log10(PFU/ml),[7]; concentration 5 nM,9.0266 log10(PFU/ml)
same,mean log10(PFU/ml),[7]; concentration 50 nM,9.0323 log10(PFU/ml)
same,mean log10(PFU/ml),[7]; concentration 500 nM,9.005 log10(PFU/ml)
same,mean log10(PFU/ml),[7]; concentration 5000 nM,9 log10(PFU/ml)
same,mean log10(PFU/ml),[7]; concentration 50000 nM,9.006 log10(PFU/ml)
same,inhibition at 0.00025 µM,"[8]; Calu-3, B.1, concentration 0.25 nM",7.25%
same,inhibition at 0.0025 µM,"[8]; Calu-3, B.1, concentration 2.5 nM",11.1%
same,inhibition at 0.025 µM,"[8]; Calu-3, B.1, concentration 25 nM",52.1%
same,inhibition at 0.25 µM,"[8]; Calu-3, B.1, concentration 250 nM",86.2%
same,inhibition at 2.5 µM,"[8]; Calu-3, B.1, concentration 2500 nM",92.8%
same,inhibition at 25 µM,"[8]; Calu-3, B.1, concentration 25000 nM",93.3%
same,IC50,"[8]; Calu-3 cells, read-out: IC50, pseudovirus cell entry B.1",24.5 nM
same,IC50,"[9]; Calu-3, read-out: IC50 estimate, pseudovirus cell entry SARS-1-S",82 ± 23.1 nM
same,inhibition at 0.00025 µM,"[9]; Calu-3, concentration 0.25 nM",3.34%
same,inhibition at 0.0025 µM,"[9]; Calu-3, concentration 2.5 nM",5.92%
same,inhibition at 0.025 µM,"[9]; Calu-3, concentration 25 nM",31.7%
same,inhibition at 0.25 µM,"[9]; Calu-3, concentration 250 nM",73.6%
same,inhibition at 2.5 µM,"[9]; Calu-3, concentration 2500 nM",80.6%
same,inhibition at 25 µM,"[9]; Calu-3, concentration 25000 nM",91.7%
same,IC50,"[10]; Calu-3, read-out: IC50 estimate, pseudovirus cell entry NL63-S",432 ± 223 nM
same,inhibition at 0.00025 µM,[10]; [11],-0.475%
same,inhibition at 0.0025 µM,[10]; [11],8.77%
same,inhibition at 0.025 µM,[10]; [11],16.9%
same,inhibition at 0.25 µM,[10]; [11],57.8%
same,inhibition at 2.5 µM,[10]; [11],66.8%
same,inhibition at 25 µM,[10]; [11],73.5%
